Some test systems named below: K-562 leukemia; MCF7 breast; CCRF-CEM leukemia; U251 CNS; 786-0 renal; NCI-H226 lung; MDA-MB-231 breast; UACC-257 melanoma; SNB-19 CNS; SK-MEL-2 melanoma; OVCAR-3 ovarian; SK-MEL-28 melanoma; IGROV1 ovarian; A498 renal; OVCAR-5 ovarian; MOLT-4 leukemia; HL-60(TB) leukemia; UACC-62 melanoma; MALME-3M melanoma; ACHN renal.
What all share (assay): NCI-60 cell line screen, 48 h

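Grown in 96-well plates, cells were treated for 48 hours with each compound at five concentrations. Insufficient inhibition: endpoint recorded as highest concentration tested. Definition used: TGI = concentration required for complete inhibition of growth.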

Consider `COc1ccc(C[C@@H](C(=O)O[C@H](C)[C@H](NC(=O)[C@@H](CC(C)C)N(C)C(=O)C2CCCN2C(=O)[C@H](C)O)C(=O)N2CCCCNC(=O)[C@@H](C)C(=O)[C@H](C(C)C)OC(=O)C[C@H](O)[C@H]2CC(C)C)N(C)C(C)=O)cc1` (stereo not given in full), for which the TGI is 39.7 µM in the test on K-562 leukemia; greater than 50 µM in the test with MCF7 breast; 26.1 µM with CCRF-CEM leukemia; 21.8 µM in the test on U251 CNS; greater than 50 µM with 786-0 renal; 49.5 µM in the test with NCI-H226 lung. Besides, the TGI was 34.2 µM with MDA-MB-231 breast; greater than 50 µM with UACC-257 melanoma; greater than 50 µM in the test on SNB-19 CNS; greater than 50 µM in the test with SK-MEL-2 melanoma; greater than 50 µM with OVCAR-3 ovarian; 22.6 µM with SK-MEL-28 melanoma. Besides, the TGI with IGROV1 ovarian was greater than 50 µM; in the test on A498 renal it was 43.6 µM; in the test on OVCAR-5 ovarian it was greater than 50 µM; with MOLT-4 leukemia, 35.2 µM; in the test on HL-60(TB) leukemia, 25.2 µM; in the test on UACC-62 melanoma it was 22 µM. Besides, the TGI is 49.1 µM with MALME-3M melanoma and greater than 50 µM with ACHN renal.
Turning to `CSC1(C(=O)O)C2CCC3C2CCC31` (stereo not given), the TGI in the test on K-562 leukemia, with MCF7 breast, in the test on CCRF-CEM leukemia, in the test on U251 CNS, in the test on 786-0 renal and in the test with NCI-H226 lung was greater than 100 µM each time. Also, the TGI in the test with MDA-MB-231 breast, in the test with UACC-257 melanoma, with SNB-19 CNS, in the test with SK-MEL-2 melanoma, with OVCAR-3 ovarian and in the test on SK-MEL-28 melanoma was greater than 100 µM in each case. The TGI in the test on IGROV1 ovarian, in the test with A498 renal, with OVCAR-5 ovarian, in the test with MOLT-4 leukemia, with HL-60(TB) leukemia and in the test on UACC-62 melanoma was greater than 100 µM throughout. For the same compound, the TGI in the test on MALME-3M melanoma and in the test on ACHN renal was greater than 100 µM throughout.
For the compound `CN(C)CCNC(=O)c1cccc2c1Oc1cccc([N+](=O)[O-])c1O2`, the TGI came out at 45.5 µM with K-562 leukemia; 40.6 µM in the test with MCF7 breast; 89.8 µM in the test with CCRF-CEM leukemia; 42.8 µM with U251 CNS; 42.6 µM with 786-0 renal; 27.9 µM in the test on NCI-H226 lung. Besides, the TGI is 20.5 µM in the test with MDA-MB-231 breast; 35.5 µM in the test on UACC-257 melanoma; greater than 100 µM in the test with SNB-19 CNS; 49.3 µM with SK-MEL-2 melanoma; 49.7 µM in the test on OVCAR-3 ovarian; 38.9 µM in the test with SK-MEL-28 melanoma. Moreover, the TGI in the test on IGROV1 ovarian was 34.1 µM; in the test with A498 renal, 30.5 µM; in the test with OVCAR-5 ovarian, 39.5 µM; with MOLT-4 leukemia, 27.1 µM; with HL-60(TB) leukemia it was 51.7 µM; with UACC-62 melanoma, 33 µM. The TGI in the test on MALME-3M melanoma worked out at 28.1 µM; in the test on ACHN renal, 37.5 µM.
Take `COc1ccc2c(C)cc(N/N=C/c3ccc(C)s3)nc2c1`: the TGI is greater than 100 µM in the test with K-562 leukemia; 25.3 µM with MCF7 breast; greater than 93.7 µM in the test on CCRF-CEM leukemia; greater than 48 µM with U251 CNS; 31.6 µM in the test on 786-0 renal; 51.7 µM with NCI-H226 lung. The TGI was 29.1 µM in the test with MDA-MB-231 breast; greater than 52.9 µM with UACC-257 melanoma; greater than 67.2 µM with SNB-19 CNS; 37.9 µM with SK-MEL-2 melanoma; 8.88 µM in the test with OVCAR-3 ovarian; greater than 100 µM in the test with SK-MEL-28 melanoma. For the same compound, the TGI was 37.9 µM in the test on IGROV1 ovarian; 52.9 µM in the test on A498 renal; 30.2 µM in the test on OVCAR-5 ovarian; 36.9 µM in the test on MOLT-4 leukemia; greater than 56.2 µM in the test on HL-60(TB) leukemia; greater than 54.6 µM in the test with UACC-62 melanoma. The values for the TGI in the test on MALME-3M melanoma and with ACHN renal were greater than 69.6 µM and greater than 52.4 µM, respectively.
With `C1=Nc2ccc(cc2)-c2ccc(cc2)N=Cc2ccc(cc2)OCc2cccc(n2)COc2ccc1cc2`, the TGI in the test on K-562 leukemia, in the test with MCF7 breast, in the test on CCRF-CEM leukemia, with U251 CNS, in the test with 786-0 renal and in the test with NCI-H226 lung was greater than 100 µM throughout. Further, the TGI in the test with MDA-MB-231 breast, in the test on UACC-257 melanoma, in the test with SNB-19 CNS, with SK-MEL-2 melanoma, with OVCAR-3 ovarian and in the test on SK-MEL-28 melanoma was greater than 100 µM in each case. The TGI in the test with IGROV1 ovarian, in the test with A498 renal, in the test with OVCAR-5 ovarian, with MOLT-4 leukemia, with HL-60(TB) leukemia and in the test with UACC-62 melanoma was greater than 100 µM in each case. The TGI in the test with MALME-3M melanoma and in the test on ACHN renal was greater than 100 µM in each case.
Consider `COC(=O)[C@@H](NC(=O)[C@H](N)Cc1ccc(N(CCCl)CCCl)cc1)C(C)C`, for which the TGI in the test on K-562 leukemia was 40.3 µM; with MCF7 breast it was greater than 100 µM; in the test with CCRF-CEM leukemia, greater than 29.6 µM; with U251 CNS it was greater than 100 µM; with 786-0 renal, 49.7 µM; with NCI-H226 lung, 59.2 µM. Further, the TGI in the test on MDA-MB-231 breast is 57.7 µM; in the test on UACC-257 melanoma, 25 µM; with SNB-19 CNS, greater than 100 µM; with SK-MEL-2 melanoma, greater than 100 µM; in the test on OVCAR-3 ovarian, greater than 72.8 µM; in the test on SK-MEL-28 melanoma, 40.4 µM. Besides, the TGI was 45.1 µM in the test with IGROV1 ovarian; 48.5 µM in the test on A498 renal; greater than 100 µM in the test with OVCAR-5 ovarian; 0.234 µM with MOLT-4 leukemia; greater than 51.8 µM with HL-60(TB) leukemia; 13.4 µM with UACC-62 melanoma. Further, the TGI in the test on MALME-3M melanoma was 6.19 µM; in the test on ACHN renal it was 51.8 µM.
